Experimental data taken from patent US10703756B2, “Pyrrolo[2,3-D]pyrimidinyl, pyrrolo[2,3-B]pyrazinyl, pyrrolo[2,3-B]pyridinyl acrylamides and epoxides thereof” (Pfizer Inc., priority 2015, dated 2020).

Columns and labels:
[1] = Stability of JAK3 Covalent Inhibitors in Human Whole Blood; assay type: in vitro ADME; settings: both sexes, 1 μM test compound, 37° C., 180 min incubation, read-out: Human blood stability t1/2
Method in brief: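 Parent remaining versus time was derived from LC-MS/MS peak area ratios to internal standard after acetonitrile quench. Incubations ran for 180 min at 37° C, in duplicate, with 1 μM test compound in pooled K2-EDTA human blood (two healthy donors).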

[2] = target: T1, JAK3 enzyme (Homo sapiens, UniProt P52333); assay: JAK Caliper Enzyme Assay at 1 mM ATP; assay type: biochemical
T1 sequence (P52333 1-1124): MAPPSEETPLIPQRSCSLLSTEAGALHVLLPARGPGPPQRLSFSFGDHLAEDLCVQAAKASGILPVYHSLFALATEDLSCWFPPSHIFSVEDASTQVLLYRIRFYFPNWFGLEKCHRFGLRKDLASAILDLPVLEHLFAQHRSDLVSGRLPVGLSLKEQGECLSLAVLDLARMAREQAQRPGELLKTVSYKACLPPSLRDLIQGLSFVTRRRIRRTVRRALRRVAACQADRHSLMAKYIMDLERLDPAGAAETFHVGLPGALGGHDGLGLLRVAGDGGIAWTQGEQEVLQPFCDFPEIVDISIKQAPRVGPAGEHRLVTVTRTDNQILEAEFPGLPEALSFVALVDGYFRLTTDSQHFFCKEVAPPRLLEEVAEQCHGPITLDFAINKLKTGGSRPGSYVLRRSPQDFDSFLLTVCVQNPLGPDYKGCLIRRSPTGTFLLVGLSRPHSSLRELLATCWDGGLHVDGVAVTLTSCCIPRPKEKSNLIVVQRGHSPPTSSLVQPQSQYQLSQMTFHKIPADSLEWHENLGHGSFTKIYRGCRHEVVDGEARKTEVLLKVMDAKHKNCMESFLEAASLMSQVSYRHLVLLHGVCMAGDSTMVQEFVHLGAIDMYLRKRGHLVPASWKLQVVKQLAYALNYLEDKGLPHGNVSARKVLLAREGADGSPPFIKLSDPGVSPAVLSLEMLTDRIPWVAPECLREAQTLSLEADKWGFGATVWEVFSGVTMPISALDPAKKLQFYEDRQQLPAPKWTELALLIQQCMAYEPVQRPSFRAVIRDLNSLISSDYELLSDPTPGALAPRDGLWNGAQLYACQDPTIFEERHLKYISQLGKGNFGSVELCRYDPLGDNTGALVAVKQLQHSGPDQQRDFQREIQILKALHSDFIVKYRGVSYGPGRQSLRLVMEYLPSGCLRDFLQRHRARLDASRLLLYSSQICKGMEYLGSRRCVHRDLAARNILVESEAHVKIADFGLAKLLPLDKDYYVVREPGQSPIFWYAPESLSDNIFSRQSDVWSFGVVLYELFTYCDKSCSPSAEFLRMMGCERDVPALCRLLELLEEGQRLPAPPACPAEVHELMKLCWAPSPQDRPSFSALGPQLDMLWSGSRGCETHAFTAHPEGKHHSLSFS
Method in brief: (§1)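 Substrate conversion was kept within 20%-30% by adjusting enzyme and incubation for every preparation; peptide phosphorylation was quantified via on-chip mobility shift.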

[3] = target: T1, JAK3 enzyme; assay: JAK Caliper Enzyme Assay at 4 μM ATP; assay type: biochemical
Method in brief: as §1

[4] = test system: IL-15 induced STAT5 phosphorylation in human whole blood lymphocytes; assay: HWB IL-15 Induced STAT5 Phosphorylation Assay; assay type: cell-based; settings: Lymphocyte, IL-15 final 50 ng/ml, read-out: HWB_IL15 pSTAT5 IC50
Method in brief: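 Heparinised human whole blood preincubated with compound (0.2% DMSO final) 45 min at 37° C, then stimulated with human IL-15 (50 ng/ml final) for 15 min. After lyse/fix and Perm Buffer III permeabilisation, stained overnight at 4° C with AlexaFluor647 anti-phospho-STAT5; read by flow cytometry gated on total lymphocytes.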

Compound `C=CC(=O)N1CC[C@H](Nc2cnc3[nH]cc(C(=O)NCC(F)(F)F)c3n2)[C@H](OC)C1` [Example 293, 2-{[(3R,4S)-1-acryloyl-3-methoxypiperidin-4-yl]amino}-N-(2,2,2-trifluoroethyl)-5H-pyrrolo[2,3-b]pyrazine-7-carboxamide] has a half-life at 1 μM [1] of 3.4 h, an IC50 [2] of 51 nM and an IC50 [3] of 0.68 nM. It also gave an IC50 [4] of 818 nM.
With `C=CC(=O)N1CCN(c2cnc3[nH]cc(C(=O)N[C@@H](C)COC)c3n2)CC1` [Example 295, 2-(4-acryloylpiperazin-1-yl)-N-[(2S)-1-methoxypropan-2-yl]-5H-pyrrolo[2,3-b]pyrazine-7-carboxamide] the half-life at 1 μM [1] was 2.22 h, the IC50 [2] was 29 nM and the IC50 [3] was 0.179 nM. It also gave an IC50 [4] of 199 nM.
`C=CC(=O)N1CCN(c2cnc3[nH]cc(C(=O)N[C@@H](C)COC)c3n2)CC1(C)C` [Example 298, 2-(4-acryloyl-3,3-dimethylpiperazin-1-yl)-N-[(2S)-1-methoxypropan-2-yl]-5H-pyrrolo[2,3-b]pyrazine-7-carboxamide] gave a half-life at 1 μM [1] of over 6 h, an IC50 [2] of 69 nM and an IC50 [3] of 0.485 nM. The IC50 [4] was 1280 nM.
`C=CC(=O)N1CCN(c2cnc3[nH]cc(C(=O)N[C@H](CC)CC#N)c3n2)C[C@@H]1CC(C)C` [Example 314, 2-[(3S)-4-acryloyl-3-(2-methylpropyl)piperazin-1-yl]-N-[(2R)-1-cyanobutan-2-yl]-5H-pyrrolo[2,3-b]pyrazine-7-carboxamide] gave a half-life at 1 μM [1] of 3.12 h, an IC50 [2] of 30 nM and an IC50 [3] of 0.24 nM. The IC50 [4] was 402 nM.
`C=CC(=O)N1CC[C@H](Nc2cnc3[nH]cc(C(=O)NCCCC(F)(F)F)c3n2)[C@H](OC)C1` [Example 319, 2-{[(3R,4S)-1-acryloyl-3-methoxypiperidin-4-yl]amino}-N-(4,4,4-trifluorobutyl)-5H-pyrrolo[2,3-b]pyrazine-7-carboxamide] gave a half-life at 1 μM [1] of 5.57 h, an IC50 [2] of 45 nM and an IC50 [3] of 0.404 nM. The IC50 [4] was 396 nM.
In the case of `C=CC(=O)N1CC[C@@H](Nc2cnc3[nH]cc(C(=O)NCC(C)(F)F)c3n2)[C@@H](OC)C1` [Example 321, 2-{[(3S,4R)-1-acryloyl-3-methoxypiperidin-4-yl]amino}-N-(2,2-difluoropropyl)-5H-pyrrolo[2,3-b]pyrazine-7-carboxamide], the half-life at 1 μM [1] is reported as over 6 h, the IC50 [2] is reported as 46 nM and the IC50 [3] is reported as 0.448 nM. For the same compound, the IC50 [4] was 999 nM.
For `C=CC(=O)N1CCC(C)(Nc2cnc3[nH]cc(C(=O)NC4CCC4)c3n2)CC1` [Example 324, 2-[(1-acryloyl-4-methylpiperidin-4-yl)amino]-N-cyclobutyl-5H-pyrrolo[2,3-b]pyrazine-7-carboxamide], the half-life at 1 μM [1] was 4.3 h, the IC50 [2] was 21 nM and the IC50 [3] was 0.418 nM. For the same compound, the IC50 [4] was 1270 nM.
Compound `C=CC(=O)N1CC[C@H](Nc2cnc3[nH]cc(C(=O)NCC)c3n2)[C@H](OC)C1` [Example 326, 2-{[(3R,4S)-1-acryloyl-3-methoxypiperidin-4-yl]amino}-N-ethyl-5H-pyrrolo[2,3-b]pyrazine-7-carboxamide] has a half-life at 1 μM [1] of over 6 h, an IC50 [2] of 50 nM and an IC50 [3] of 0.455 nM. For the same compound, the IC50 [4] was 780 nM.
Compound `C=CC(=O)N1CCN(c2cnc3[nH]cc(C(=O)N[C@H](C)COC)c3n2)CC1(C)C` [Example 327] has a half-life at 1 μM [1] of over 6 h, an IC50 [2] of 56 nM and an IC50 [3] of 0.546 nM. The IC50 [4] was 1040 nM.
In the case of `C=CC(=O)N1CC[C@@H](Nc2cnc3[nH]cc(C(=O)N[C@H](C)COC)c3n2)[C@@H](OC)C1` [Example 331, 2-{[(3S,4R)-1-acryloyl-3-methoxypiperidin-4-yl]amino}-N-[(2R)-1-methoxypropan-2-yl]-5H-pyrrolo[2,3-b]pyrazine-7-carboxamide], the half-life at 1 μM [1] is reported as 5.52 h, the IC50 [2] is reported as 42 nM and the IC50 [3] is reported as 0.313 nM. The IC50 [4] was 263 nM.
In the case of `C=CC(=O)N1CCN(c2cnc3[nH]cc(C(=O)N[C@H](C)COC)c3n2)CC1` [Example 332], the half-life at 1 μM [1] is reported as 2.42 h, the IC50 [2] is reported as 22 nM and the IC50 [3] is reported as 0.262 nM. For the same compound, the IC50 [4] was 221 nM.
